Assay results as given in US10485235B2, “Aryloxypyrimidinyl ethers as herbicides” (FMC Corporation, priority 2015, dated 2019).

How the values were obtained:
Format in all cases: in vivo
[1] = tested on: barnyardgrass (Echinochloa crus-galli); assay: Test A preemergence, barnyardgrass; details: Echinochloa crus-galli, pre-emergence, 240 h, Preemergence, 0 to 100 scale (0 no effect, 100 complete control), read-out: Plant response rating, Barnyardgrass; for pest or weed control at 31 g/ha: 31 g ai/ha; for pest or weed control at 125 g/ha: 125 g ai/ha
Procedure, shortened: (§1)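 Test chemicals in a solvent/surfactant mixture were applied as a preemergence directed soil spray on seeded loam–sand, or postemergence to plants 2–10 cm tall at the one- to two-leaf stage. After roughly 10 days in a greenhouse, injury was visually rated versus untreated controls on a 0 (no effect) to 100 (complete control) scale.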

[2] = tested on: kochia (Kochia scoparia); assay: Test A preemergence, kochia; details: Bassia scoparia, pre-emergence, 240 h, Preemergence, 0 to 100 scale (0 no effect, 100 complete control), read-out: Plant response rating, Kochia; for pest or weed control at 31 g/ha: 31 g ai/ha; for pest or weed control at 125 g/ha: 125 g ai/ha
Procedure, shortened: as §1

[3] = tested on: ryegrass, Italian (Italian ryegrass, Lolium multiflorum); assay: Test A preemergence, Italian ryegrass; details: Lolium multiflorum, pre-emergence, 240 h, Preemergence, 0 to 100 scale (0 no effect, 100 complete control), read-out: Plant response rating, Ryegrass, Italian; for pest or weed control at 31 g/ha: 31 g ai/ha; for pest or weed control at 125 g/ha: 125 g ai/ha
Procedure, shortened: as §1

[4] = tested on: foxtail, giant (giant foxtail, Setaria faberii); assay: Test A preemergence, giant foxtail; details: Setaria faberi, pre-emergence, 240 h, Preemergence, 0 to 100 scale (0 no effect, 100 complete control), read-out: Plant response rating, Foxtail, Giant; for pest or weed control at 31 g/ha: 31 g ai/ha; for pest or weed control at 125 g/ha: 125 g ai/ha
Procedure, shortened: as §1

[5] = tested on: pigweed (Amaranthus retroflexus); assay: Test A preemergence, pigweed; details: Amaranthus retroflexus, pre-emergence, 240 h, Preemergence, 0 to 100 scale (0 no effect, 100 complete control), read-out: Plant response rating, Pigweed; for pest or weed control at 31 g/ha: 31 g ai/ha; for pest or weed control at 125 g/ha: 125 g ai/ha
Procedure, shortened: as §1

[6] = tested on: kochia (Kochia scoparia); assay: Test A postemergence, kochia; details: Bassia scoparia, post-emergence, 240 h, postemergence, 0 to 100 scale, 0 is no effect, 100 is complete control, approximately 10 days, read-out: Plant response rating, Kochia; for pest or weed control at 31 g/ha: 31 g ai/ha; for pest or weed control at 125 g/ha: 125 g ai/ha
Procedure, shortened: as §1

[7] = tested on: foxtail, giant (giant foxtail, Setaria faberii); assay: Test A postemergence, giant foxtail; details: Setaria faberi, post-emergence, 240 h, postemergence, 0 to 100 scale, 0 is no effect, 100 is complete control, approximately 10 days, read-out: Plant response rating, Foxtail, Giant; for pest or weed control at 31 g/ha: 31 g ai/ha; for pest or weed control at 125 g/ha: 125 g ai/ha
Procedure, shortened: as §1

[8] = tested on: pigweed (Amaranthus retroflexus); assay: Test A postemergence, pigweed; details: Amaranthus retroflexus, post-emergence, 240 h, postemergence, 0 to 100 scale, 0 is no effect, 100 is complete control, approximately 10 days, read-out: Plant response rating, Pigweed; for pest or weed control at 31 g/ha: 31 g ai/ha; for pest or weed control at 125 g/ha: 125 g ai/ha
Procedure, shortened: as §1

[9] = tested on: wheat (Triticum aestivum); assay: Test A postemergence, wheat; details: Triticum aestivum, post-emergence, 240 h, postemergence, 0 to 100 scale, 0 is no effect, 100 is complete control, approximately 10 days, read-out: Plant response rating, Wheat; for plant injury at 31 g/ha: 31 g ai/ha; for plant injury at 125 g/ha: 125 g ai/ha
Procedure, shortened: as §1

[10] = tested on: corn (Zea mays); assay: Test A postemergence, corn; details: Zea mays, post-emergence, 240 h, postemergence, 0 to 100 scale, 0 is no effect, 100 is complete control, approximately 10 days; for Corn plant response rating (crop injury, 0 = no effect, 100 = complete kill) at 31 g/ha: 31 g ai/ha; for Corn plant response rating (crop injury, 0 = no effect, 100 = complete kill) at 125 g/ha: 125 g ai/ha
Procedure, shortened: as §1

[11] = tested on: galium (catchweed bedstraw, Galium aparine); assay: Test A postemergence, galium; details: Galium, post-emergence, 240 h, postemergence, 0 to 100 scale, 0 is no effect, 100 is complete control, approximately 10 days, read-out: Plant response rating, Galium; for pest or weed control at 31 g/ha: 31 g ai/ha; for pest or weed control at 125 g/ha: 125 g ai/ha
Procedure, shortened: as §1

[12] = tested on: rice (Oryza sativa); assay: Test B flooded paddy test, rice; details: Oryza sativa; 250 g ai/ha, Flood; visual rating after 13 to 15 days; scale 0 to 100, 0 is no effect, 100 is complete control; read-out: Plant response rating, Rice
Procedure, shortened: (§2)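 Plants grown to the 2-leaf stage; pots flooded to 3 cm above soil and compounds applied directly into the paddy water, depth held throughout. After 13 to 15 days in the greenhouse, injury was rated visually against untreated controls on a 0–100 scale (0 no effect, 100 complete control).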

[13] = tested on: sedge, umbrella (small-flower umbrella sedge, Cyperus difformis); assay: Test B flooded paddy test, umbrella sedge; details: Cyperus difformis; 250 g ai/ha, Flood; visual rating after 13 to 15 days; scale 0 to 100, 0 is no effect, 100 is complete control; read-out: Plant response rating, Sedge, Umbrella
Procedure, shortened: as §2

[14] = tested on: ducksalad (Heteranthera limosa); assay: Test B flooded paddy test, ducksalad; details: Heteranthera limosa; 250 g ai/ha, Flood; visual rating after 13 to 15 days; scale 0 to 100, 0 is no effect, 100 is complete control; read-out: Plant response rating, Ducksalad
Procedure, shortened: as §2

[15] = tested on: barnyardgrass (Echinochloa crus-galli); assay: Test B flooded paddy test, barnyardgrass; details: Echinochloa crus-galli; 250 g ai/ha, Flood; visual rating after 13 to 15 days; scale 0 to 100, 0 is no effect, 100 is complete control; read-out: Plant response rating, Barnyardgrass
Procedure, shortened: as §2

Row | Structure (SMILES) | pest or weed control at 31 g/ha [1] [%] | pest or weed control at 125 g/ha [1] [%] | pest or weed control at 31 g/ha [2] [%] | pest or weed control at 125 g/ha [2] [%] | pest or weed control at 31 g/ha [3] [%] | pest or weed control at 125 g/ha [3] [%] | pest or weed control at 31 g/ha [4] [%] | pest or weed control at 125 g/ha [4] [%] | pest or weed control at 31 g/ha [5] [%] | pest or weed control at 125 g/ha [5] [%] | pest or weed control at 31 g/ha [6] [%] | pest or weed control at 125 g/ha [6] [%] | pest or weed control at 31 g/ha [7] [%] | pest or weed control at 125 g/ha [7] [%] | pest or weed control at 31 g/ha [8] [%] | pest or weed control at 125 g/ha [8] [%] | plant injury at 31 g/ha [9] [%] | plant injury at 125 g/ha [9] [%] | Corn plant response rating (crop injury, 0 = no effect, 100 = complete kill) at 31 g/ha [10] [%] | Corn plant response rating (crop injury, 0 = no effect, 100 = complete kill) at 125 g/ha [10] [%] | other results
1 | N#Cc1cccc(Oc2ncc(Cl)cn2)c1OCC(F)(F)F [Compound 1] | 10 | 80 | 60 | 100 | 0 | 10 | 60 | 100 | 100 | 100 | 60 | 80 | 10 | 20 | 60 | 90 | 0 | 0 | 10 | 10 | pest or weed control at 31 g/ha [11]: 10%; pest or weed control at 125 g/ha [11]: 40%
2 | N#Cc1cccc(Oc2ncc(F)cn2)c1OCCCC(F)(F)F [Compound 4, 3-[(5-fluoro-2-pyrimidinyl)oxy]-2-(4,4,4-trifluorobutoxy)benzonitrile] | 60 | 100 | 40 | 90 | 10 | 60 | 100 | 100 | 90 | 100 | 90 | 100 | 70 | 100 | 100 | 100 | 20 | 20 | 40 | 90 | pest or weed control at 31 g/ha [11]: 50%; pest or weed control at 125 g/ha [11]: 90%; plant injury at 250 g/ha [12]: 30%; pest or weed control at 250 g/ha [13]: 95%; pest or weed control at 250 g/ha [14]: 90%; pest or weed control at 250 g/ha [15]: 50%
3 | N#Cc1cccc(Oc2ncc(Cl)cn2)c1OCCCC(F)(F)F [Compound 5, 3-[(5-chloro-2-pyrimidinyl)oxy]-2-(4,4,4-trifluorobutoxy)benzonitrile] | 80 | 100 | 90 | 100 | 20 | 60 | 100 | 100 | 90 | 90 | 100 | 100 | 60 | 100 | 100 | 100 | 20 | 40 | 50 | 80 | pest or weed control at 31 g/ha [11]: 80%; pest or weed control at 125 g/ha [11]: 100%; plant injury at 250 g/ha [12]: 40%; pest or weed control at 250 g/ha [13]: 95%; pest or weed control at 250 g/ha [14]: 90%; pest or weed control at 250 g/ha [15]: 50%
4 | N#Cc1cccc(Oc2ncc(Cl)cn2)c1OC/C=C/C(F)(F)F [Compound 8, 3-[(5-chloro-2-pyrimidinyl)oxy]-2-[[(2E)-4,4,4-trifluoro-2-buten-1-yl]oxy]benzonitrile] | 30 | 100 | 20 | 100 | 0 | 30 | 100 | 100 | 100 | 100 | 80 | 100 | 20 | 90 | 90 | 100 | 0 | 10 | 10 | 20 | pest or weed control at 31 g/ha [11]: 40%; pest or weed control at 125 g/ha [11]: 90%; plant injury at 250 g/ha [12]: 0%; pest or weed control at 250 g/ha [13]: 100%; pest or weed control at 250 g/ha [14]: 75%; pest or weed control at 250 g/ha [15]: 0%
5 | N#Cc1cccc(Oc2ncc(F)cn2)c1OCC(F)(F)F [Compound 41] | 0 | 40 | 50 | 100 | 0 | 10 | 20 | 80 | 100 | 100 | 30 | 60 | 0 | 0 | 30 | 70 | 0 | 0 | 0 | 10 | pest or weed control at 31 g/ha [11]: 10%; pest or weed control at 125 g/ha [11]: 20%
